Columns and labels:
[1] = Stability HPLC data summary of Form A1 of valbenazine oxalate (appearance, assay, HPLC, chiral HPLC, moisture on storage); assay type: physicochemical; conditions: 2~8° C.; for Appearance: double PE bags sealed in laminated aluminum foil bag
Excerpt: Stability Data of Form A1 of Valbenazine Oxalate [table]

[2] = Stability of valbenazine salts, general statement

Assay (Anhydrous) ([1]; 0 months): 100.1% | Chiral HPLC Chiral imp-1 ([1]; 0 months): 0.01% | Chiral HPLC Chiral imp-2 ([1]; 0 months): 0.04% | Chiral HPLC Chiral imp-3 ([1]; 0 months): 0.03% | Chiral HPLC Valbenazine ([1]; 0 months): 99.93% | HPLC Imp-1 (LSI) ([1]; 0 months): 0.03% | HPLC Imp-2 ([1]; 0 months): 0.01% | HPLC Imp-3 ([1]; 0 months): 0.02% | HPLC Imp-4 ([1]; 0 months): 0.02% | HPLC Imp-5 ([1]; 0 months): 0.01% | HPLC Imp-7 ([1]; 0 months): 0.01% | HPLC Valbenazine ([1]; 0 months): 99.81% | Moisture ([1]; 0 months): 0.12% | Assay (Anhydrous) ([1]; 0.5 months): 100.8% | Chiral HPLC Chiral imp-1 ([1]; 0.5 months): 0.01% | Chiral HPLC Chiral imp-2 ([1]; 0.5 months): 0.04% | Chiral HPLC Chiral imp-3 ([1]; 0.5 months): 0.03% | Chiral HPLC Valbenazine ([1]; 0.5 months): 99.93% | HPLC Imp-1 (LSI) ([1]; 0.5 months): 0.03% | HPLC Imp-3 ([1]; 0.5 months): 0.03% | HPLC Imp-5 ([1]; 0.5 months): 0.01% | HPLC Imp-7 ([1]; 0.5 months): 0.02% | HPLC Valbenazine ([1]; 0.5 months): 99.84% | Moisture ([1]; 0.5 months): 0.2% | Assay (Anhydrous) ([1]; 1 months): 101.0% | Chiral HPLC Chiral imp-1 ([1]; 1 months): 0.01% | Chiral HPLC Chiral imp-2 ([1]; 1 months): 0.04% | Chiral HPLC Valbenazine ([1]; 1 months): 99.95% | HPLC Imp-1 (LSI) ([1]; 1 months): 0.03% | HPLC Imp-2 ([1]; 1 months): 0.01% | HPLC Imp-3 ([1]; 1 months): 0.02% | HPLC Imp-4 ([1]; 1 months): 0.01% | HPLC Imp-5 ([1]; 1 months): 0.01% | HPLC Imp-7 ([1]; 1 months): 0.01% | HPLC Valbenazine ([1]; 1 months): 99.84% | Moisture ([1]; 1 months): 0.19% | Assay (Anhydrous) ([1]; 3 months): 100.33% | Chiral HPLC Chiral imp-1 ([1]; 3 months): 0.01% | Chiral HPLC Chiral imp-2 ([1]; 3 months): 0.07% | Chiral HPLC Chiral imp-3 ([1]; 3 months): 0.02% | Chiral HPLC Valbenazine ([1]; 3 months): 99.91% | HPLC Imp-1 (LSI) ([1]; 3 months): 0.04% | HPLC Imp-2 ([1]; 3 months): 0.02% | HPLC Imp-3 ([1]; 3 months): 0.04% | HPLC Imp-4 ([1]; 3 months): 0.03% | HPLC Imp-5 ([1]; 3 months): 0.02% | HPLC Imp-7 ([1]; 3 months): 0.01% | HPLC Valbenazine ([1]; 3 months): 99.78% | Moisture ([1]; 3 months): 0.4% | Appearance ([1]; 0 months): White | Appearance ([1]; 0.5 months): White solid | Appearance ([1]; 1 months): White solid | Appearance ([1]; 3 months): White solid | stability (in words) [2]: good stability
Substance: valbenazine oxalate [Form A1 of valbenazine oxalate]

Reference: patent US20210253567A1, “AMORPHOUS AND CRYSTALLINE FORMS OF VALBENAZINE SALT” (SUZHOU PENGXU PHARMATECH CO., LTD., priority 2018, published 2021)
